Where two headings read alike, the source gives them in different places.

For 25 compounds, IC50 results are on record in patent US9062045B2, “Triazolopyridine compounds” (Novartis AG, priority 2012, dated 2015).

For one assay, the system named is GTL16 cells. The experiment in a line: GTL16 cell viability assay (CellTiter Glo). To be noted: read-out: GTL-16 Proliferation IC50; GTL16 cells, 24 hours.
In another assay the target is human platelet PDE3 (Homo sapiens (Human), UniProt Q14432). The experiment in a line: hPDE3 assay ([3H]cAMP scintillation proximity assay). The class given is biochemical. From the text:
Here, compounds of formula I were screened for their ability to inhibit human PDE3 in the assay based on Amersham Pharmacia Biotech's Phosphodiesterase (PDE) [^3H]-adenosine 3′,5′ cyclic phosphate ([^3H]cAMP) Scintillation Proximity Assay (SPA). The assay is based on the hydrolysis of [^3H]cAMP, by human platelet PDE3, to [^3H]5′-adenoside monophosphate (5′-AMP). The [^3H]5′-AMP is specifically captured by yttrium silicate SPA beads in the presence of zinc sulphate.
• Optiplate and TopSeal-S (Can berra Packard) • Human platelet PDE3 (partially purified from human platelets)—a titration curve of human platelet PDE3 activity was performed to optimise the concentration of hPDE3 required in the assay. • Yttrium silicate SPA beads and [^3H]cAMP (Amersham) • Tris-Base, magnesium chloride, ethylenediaminetetraacetic acid (di-sodium salt), bovine serum albumin BSA and cAMP (Sigma) Solutions and Buffers: • Assay buffer: 7.56 g Tris-Base was dissolved in approximately 800 mL distilled water and the pH adjusted to 7.5 with 1 M hydrochloric acid. 10.3 mL 1 M magnesium chloride and 4.25 mL 0.5 M EDTA were added. The solution was made to 1 L with distilled water and stored at 4° C. On day of use 18 mL of the above solution was removed and 2 mL 5 mg/ml BSA were added thereto. • Enzyme buffer: 10 mM Tris-HCl at pH 7.5, 1 mM EDTA • Yttrium silicate SPA beads: 1 vial was reconstituted in 28 mL distilled water and stored at 4° C. Assay
The assay was performed in a final volume of 100 μL per well of an Optiplate (Canberra Packard). A 10 μL aliquot of the test compound dissolved in DMSO/distilled water was placed in a well of an Optiplate plate, followed by the addition of 80 μL ‘Assay mix’ (5.5 μL [^3H]cAMP and 88 μL “cold” cAMP were diluted to 8.8 mL using assay buffer). The reaction was started by adding 10 μL hPDE3 (50 μL stock hPDE3 solution was diluted 50 fold to 2.5 mL using enzyme buffer). The plate was incubated at room temperature for 30 min, the reaction was then terminated by the addition of 50 μL Yttrium silicate SPA beads (pre-warmed to room temperature) to all wells. […] The plate was sealed using TopSeal-S according to the manufacturer's instructions and counted using a Packard TopCount, each well being counted for 1 min. IC50 values were determined using non-linear regression.
Background: In a scintillation proximity assay essentially only radioactivity close to the scintillant gives light.

human platelet PDE3, sequence (Q14432 whole entry): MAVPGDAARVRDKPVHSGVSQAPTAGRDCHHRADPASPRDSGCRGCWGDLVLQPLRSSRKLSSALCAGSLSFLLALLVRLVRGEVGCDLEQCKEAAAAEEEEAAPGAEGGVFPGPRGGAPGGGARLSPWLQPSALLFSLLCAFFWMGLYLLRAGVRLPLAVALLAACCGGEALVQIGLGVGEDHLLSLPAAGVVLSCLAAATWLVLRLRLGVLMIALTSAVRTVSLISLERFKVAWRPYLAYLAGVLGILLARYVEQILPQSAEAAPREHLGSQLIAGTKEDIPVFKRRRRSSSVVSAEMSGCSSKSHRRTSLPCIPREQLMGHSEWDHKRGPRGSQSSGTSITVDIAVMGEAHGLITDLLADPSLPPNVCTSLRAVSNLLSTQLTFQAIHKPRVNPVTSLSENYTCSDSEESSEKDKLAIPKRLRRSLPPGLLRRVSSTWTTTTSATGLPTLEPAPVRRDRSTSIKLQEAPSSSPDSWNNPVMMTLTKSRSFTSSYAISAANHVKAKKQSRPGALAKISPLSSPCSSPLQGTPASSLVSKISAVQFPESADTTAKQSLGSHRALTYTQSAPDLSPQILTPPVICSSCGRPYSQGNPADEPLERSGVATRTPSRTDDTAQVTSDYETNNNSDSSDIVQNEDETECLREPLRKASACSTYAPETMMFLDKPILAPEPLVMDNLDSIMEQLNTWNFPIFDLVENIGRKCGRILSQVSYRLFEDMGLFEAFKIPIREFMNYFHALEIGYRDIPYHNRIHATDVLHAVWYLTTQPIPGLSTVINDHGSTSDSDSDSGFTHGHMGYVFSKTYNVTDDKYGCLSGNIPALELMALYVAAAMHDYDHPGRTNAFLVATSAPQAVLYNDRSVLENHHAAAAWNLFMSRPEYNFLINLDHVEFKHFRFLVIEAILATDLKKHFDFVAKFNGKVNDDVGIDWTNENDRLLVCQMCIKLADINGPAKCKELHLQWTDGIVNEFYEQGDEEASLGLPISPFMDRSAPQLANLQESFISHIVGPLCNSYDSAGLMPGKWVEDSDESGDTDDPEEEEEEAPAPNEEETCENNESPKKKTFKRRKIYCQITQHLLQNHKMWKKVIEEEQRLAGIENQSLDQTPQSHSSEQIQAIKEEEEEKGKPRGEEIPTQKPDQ
Experimental for GTL16 cells: GTL16 Cell Viability Assay:
GTL16 expresses high level of c-Met receptor tyrosine kinase due to the gene amplification.
GTL16 cells were seeded in DMEM medium with 10% FBS and 1% Pene. & Strep. at 5000 cells/well/90 μL in 96 well plate and incubated overnight for attachment at 37° C. in 5% CO2 incubator. 10-fold serials dilutions of compounds were added to the cell as 10 μL/well. The final assay volume was 100 μl/well. The assay plates were incubated at 37° C. in 5% CO2 incubator for 24 hours. […] The chemiluminescent light unit was read in Envision from Perkin Elmer. All the tests were run at triplicates. The IC50 was calculated using Spotfire software.

Take `OCCn1cc(-c2cnc3nnn(Cc4ccc5ncccc5c4)c3n2)cn1` [Comparator No. 3 (PF-04217903), 2-[4-(3-Quinolin-6-ylmethyl-3H-[1,2,3]triazolo[4,5-b]pyrazin-5-yl)-pyrazol-1-yl]-ethanol, reference compound]: the IC50 in the assay with GTL16 cells is below 10 nM. Consider `CN1CCN(Cc2cnc3ccc(Sc4nnc5ccc(-c6cnn(C)c6)cn45)cc3c2)CC1` [Example 6, 6-(6-(1-Methyl-1H-pyrazol-4-yl)-[1,2,4]triazolo[4,3-a]pyridin-3-ylthio)-3-((4-methylpiperazin-1-yl)methyl)quinoline], for which the IC50 at human platelet PDE3 (human platelet PDE3) is 30000 nM; with GTL16 cells, 27 nM. For the compound `CN1CCC(Nc2cnc3ccc(Sc4nnc5c(F)cc(-c6cnn(C)c6)cn45)cc3c2)CC1` [Example 8, {6-[8-Fluoro-6-(1-methyl-1H-pyrazol-4-yl)-[1,2,4]triazolo[4,3-a]pyridin-3-ylsulfanyl]-quinolin-3-yl}-(1-methyl-piperidin-4-yl)-amine], at human platelet PDE3 (human platelet PDE3), the IC50 was 30000 nM.

Turning to `Cn1cc(-c2ccc3nnc(Sc4ccc5ncc(N6CCCC(N)C6)cc5c4)n3c2)cn1` (stereo not drawn) [Example 10, 1-(6-(6-(1-Methyl-1H-pyrazol-4-yl)-[1,2,4]triazolo[4,3-a]pyridin-3-ylthio)quinolin-3-yl)piperidin-3-amine], the IC50 in the assay on GTL16 cells is 21 nM. On to `CN(C)[C@H]1CCN(c2cnc3ccc(Sc4nnc5c(F)cc(-c6cnn(C)c6)cn45)cc3c2)C1` [Example 13, (S)-1-(6-(8-Fluoro-6-(1-methyl-1H-pyrazol-4-yl)-[1,2,4]triazolo[4,3-a]pyridin-3-ylthio)quinolin-3-yl)-N,N-dimethylpyrrolidin-3-amine], for which the IC50 is 24000 nM on human platelet PDE3 (human platelet PDE3) and 0.4 nM in the assay on GTL16 cells. In the same order, the values of `CN1CCC(Nc2cnc3ccc(Sc4nnc5ccc(-c6cnn(C)c6)cn45)cc3c2)CC1` [Example 15, (1-Methyl-piperidin-4-yl)-{6-[6-(1-methyl-1H-pyrazol-4-yl)-[1,2,4]triazolo[4,3-a]pyridin-3-ylsulfanyl]-quinolin-3-yl}-amine] are 30000 nM and 2 nM. For `Cn1cc(-c2ccc3nnc(Sc4ccc5ncc(N6CCC(N)CC6)cc5c4)n3c2)cn1` [Example 21, 1-(6-(6-(1-Methyl-1H-pyrazol-4-yl)-[1,2,4]triazolo[4,3-a]pyridin-3-ylthio)quinolin-3-yl)piperidin-4-amine], in the assay on GTL16 cells, the IC50 turned out to be 36 nM. As for `Cn1cc(-c2ccc3nnc(Sc4ccc5ncc(NC6CCNCC6)cc5c4)n3c2)cn1` [Example 23, 6-(6-(1-Methyl-1H-pyrazol-4-yl)-[1,2,4]triazolo[4,3-a]pyridin-3-ylthio)-N-(piperidin-4-yl)quinolin-3-amine], the IC50 against human platelet PDE3 (human platelet PDE3) was 30000 nM; with GTL16 cells, 289 nM. For the compound `Cn1cc(-c2ccc3nnc(Sc4ccc5ncc(N6CCNCC6)cc5c4)n3c2)cn1` [Example 27, 6-(6-(1-Methyl-1H-pyrazol-4-yl)-[1,2,4]triazolo[4,3-a]pyridin-3-ylthio)-3-(piperazin-1-yl)quinoline], the results for the IC50 at human platelet PDE3 (human platelet PDE3) and in the assay on GTL16 cells were 17000 nM and 4 nM, respectively.

As for `COC1CCN(c2cnc3ccc(Sc4nnc5ccc(-c6cnn(C)c6)cn45)cc3c2)CC1` [Example 43, 3-(4-Methoxypiperidin-1-yl)-6-(6-(1-methyl-1H-pyrazol-4-yl)-[1,2,4]triazolo[4,3-a]pyridin-3-ylthio)quinoline], the IC50 in the assay on GTL16 cells was found to be 0.3 nM. For `Cn1cc(-c2ccc3nnc(Sc4ccc5ncc(N6CCC7(CCOCC7)C6)cc5c4)n3c2)cn1` [Example 47, 2-(6-((6-(1-Methyl-1H-pyrazol-4-yl)-[1,2,4]triazolo[4,3-a]pyridin-3-yl)thio)quinolin-3-yl)-8-oxa-2-azaspiro[4.5]decane], the IC50 against human platelet PDE3 (human platelet PDE3) is 12000 nM; in the assay with GTL16 cells, 3 nM. For `Cn1cc(-c2cc(F)c3nnc(Sc4ccc5ncc(N6CCC(O)CC6)cc5c4)n3c2)cn1` [Example 50, 1-(6-((8-Fluoro-6-(1-methyl-1H-pyrazol-4-yl)-[1,2,4]triazolo[4,3-a]pyridin-3-yl)thio)quinolin-3-yl)piperidin-4-ol] the same measures were 30000 nM and 1 nM. For the compound `Cn1cc(-c2ccc3nnc(Sc4ccc5ncc(NC6CCOC6)cc5c4)n3c2)cn1` (stereo not drawn) [Example 51], the figures for the IC50 against human platelet PDE3 (human platelet PDE3) and with GTL16 cells were 7000 nM and 9 nM, respectively. With `Cn1cc(-c2ccc3nnc(Sc4ccc5ncc(NCCO)cc5c4)n3c2)cn1` [Example 53, 2-(6-(6-(1-methyl-1H-pyrazol-4-yl)-[1,2,4]triazolo[4,3-a]pyridin-3-ylthio)quinolin-3-ylamino)ethanol], the IC50 was determined as 14000 nM at human platelet PDE3 (human platelet PDE3) and 17 nM in the assay with GTL16 cells. Regarding `Cn1cc(-c2cc(F)c3nnc(Sc4ccc5ncc(NCCO)cc5c4)n3c2)cn1` [Example 54, 2-(6-(8-Fluoro-6-(1-methyl-1H-pyrazol-4-yl)-[1,2,4]triazolo[4,3-a]pyridin-3-ylthio)quinolin-3-ylamino)ethanol], the IC50 in the assay with GTL16 cells worked out at 14 nM.

With `Cn1cc(-c2ccc3nnc(Sc4ccc5ncc(N6CCC(F)(F)CC6)cc5c4)n3c2)cn1` [Example 61, 3-(4,4-Difluoro-piperidin-1-yl)-6-[6-(1-methyl-1H-pyrazol-4-yl)-[1,2,4]triazolo[4,3-a]pyridin-3-ylsulfanyl]-quinoline], the IC50 against human platelet PDE3 (human platelet PDE3) came to 12000 nM; with GTL16 cells, 2 nM. In the same order, the values of `Cn1cc(-c2ccc3nnc(Sc4ccc5ncc(NC6CC(C)(C)NC(C)(C)C6)cc5c4)n3c2)cn1` [Example 62, 6-(6-(1-Methyl-1H-pyrazol-4-yl)-[1,2,4]triazolo[4,3-a]pyridin-3-ylthio)-N-(2,2,6,6-tetramethylpiperidin-4-yl)quinolin-3-amine] are 18000 nM and 73 nM.

For `Cn1cc(-c2ccc3nnc(Sc4ccc5ncc(NC6CCOCC6)cc5c4)n3c2)cn1` [Example 68, {6-[6-(1-Methyl-1H-pyrazol-4-yl)-[1,2,4]triazolo[4,3-a]pyridin-3-ylsulfanyl]-quinolin-3-yl}-(tetrahydro-pyran-4-yl)-amine], the IC50 came to 10000 nM against human platelet PDE3 (human platelet PDE3) and 3 nM with GTL16 cells. `Cn1cc(-c2cc(F)c3nnc(Sc4ccc5ncc(N6CCOCC6)cc5c4)n3c2)cn1` [Example 70, 4-(6-(8-Fluoro-6-(1-methyl-1H-pyrazol-4-yl)-[1,2,4]triazolo[4,3-a]pyridin-3-ylthio)quinolin-3-yl)morpholine]: the IC50 in the assay with GTL16 cells worked out at 1 nM. For `CN1CCN(c2cnc3ccc(Sc4nnc5ccc(-c6cnn(C)c6)cn45)cc3c2)CC1` [Example 74, 3-(4-Methyl-piperazin-1-yl)-6-[6-(1-methyl-1H-pyrazol-4-yl)-[1,2,4]triazolo[4,3-a]pyridin-3-ylsulfanyl]-quinoline], the IC50 in the assay with GTL16 cells stood at 2 nM. Regarding `C/C(=N\OCCO)c1ccc2nnc(Sc3ccc4ncc(N5CCC(O)CC5)cc4c3)n2c1` [Example 76, (E)-1-(3-((3-(4-Hydroxypiperidin-1-yl)quinolin-6-yl)thio)-[1,2,4]triazolo[4,3-a]pyridin-6-yl)-ethanone O-(2-hydroxyethyl)oxime], the IC50 is 14000 nM against human platelet PDE3 (human platelet PDE3) and 54 nM in the assay with GTL16 cells. With `C/C(=N\O)c1ccc2nnc(Sc3ccc4ncc(N5CCOCC5)cc4c3)n2c1` [Example 77, (E)-1-(3-((3-Morpholin-4-yl-quinolin-6-yl)thio)-[1,2,4]triazolo[4,3-a]pyridin-6-yl)ethanone oxime], the figures for the IC50 at human platelet PDE3 (human platelet PDE3) and with GTL16 cells were 12000 nM and 8 nM, respectively. In turn, `C/C(=N\OCCO)c1ccc2nnc(Sc3ccc4ncc(N5CCOCC5)cc4c3)n2c1` [Example 78, (E)-1-(3-((3-Morpholin-4-yl-quinolin-6-yl)thio)-[1,2,4]triazolo[4,3-a]pyridin-6-yl)ethanone O-(2-hydroxyethyl)oxime] registered an IC50 on human platelet PDE3 (human platelet PDE3) of 28000 nM. For `C/C(=N\OCCO)c1ccc2nnc(Sc3ccc4ncc(CN5CCOCC5)cc4c3)n2c1` [Example 80, (E)-1-(3-((3-(Morpholin-4-yl-methyl)quinolin-6-yl)thio)-[1,2,4]triazolo[4,3-a]pyridin-6-yl)ethanone O-(2-hydroxyethyl)oxime], the IC50 against human platelet PDE3 (human platelet PDE3) stood at 30000 nM.

The compound `C/C(=N\O)c1ccc2nnc(Sc3ccc4ncc(N5CC[C@H](N(C)C)C5)cc4c3)n2c1` [Example 82, (S,E)-1-(3-(3-(3-(Dimethylamino)pyrrolidin-1-yl)quinolin-6-ylthio)-[1,2,4]triazolo[4,3-a]pyridin-6-yl)ethanone oxime] showed an IC50 against human platelet PDE3 of 11000 nM.
